Paper PMC12434536, “Radiosynthesis and Preclinical Evaluation of a Carbon-11 Labeled Phosphodiesterase 7 Inhibitor for PET Neuroimaging” (ACS Medicinal Chemistry Letters, 2025)
Where two headings read alike, the source gives them in different places.

Legend:
PDE7 [1] = conditions: Figure 1, literature compounds; cited from earlier work
PDE4 = conditions: Figure 1, literature compounds; cited from earlier work
PDE7A = conditions: Figure 1, literature compounds; cited from earlier work
PDE4B = conditions: Figure 1, literature compounds; cited from earlier work
PDE7A1 = conditions: Figure 1, literature compounds; cited from earlier work
PDE4D3 = conditions: Figure 1, literature compounds; cited from earlier work
PDE4A4 = conditions: Figure 1, literature compounds; cited from earlier work
[2] = target: T1, HEK293-PDE7B recombinant cell lines (Homo sapiens, UniProt Q9NP56); experiment: In vitro cell uptake and blocking of [11C]27; format: cell-based
T1 construct: host or cells: HEK293
T1 sequence (Q9NP56 whole entry): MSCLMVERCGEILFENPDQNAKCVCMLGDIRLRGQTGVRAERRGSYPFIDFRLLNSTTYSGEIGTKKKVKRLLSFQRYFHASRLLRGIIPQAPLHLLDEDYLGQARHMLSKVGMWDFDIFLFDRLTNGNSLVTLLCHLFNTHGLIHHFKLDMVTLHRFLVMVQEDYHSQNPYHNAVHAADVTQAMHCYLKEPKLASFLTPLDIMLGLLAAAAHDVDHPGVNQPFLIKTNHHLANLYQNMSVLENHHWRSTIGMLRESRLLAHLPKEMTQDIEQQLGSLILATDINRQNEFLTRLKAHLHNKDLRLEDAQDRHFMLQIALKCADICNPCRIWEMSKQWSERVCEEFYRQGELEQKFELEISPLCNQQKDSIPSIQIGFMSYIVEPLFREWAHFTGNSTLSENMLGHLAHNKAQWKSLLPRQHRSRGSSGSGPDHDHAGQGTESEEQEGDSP
Protocol: Control study: HEK293-PDE7B Recombinant cells (catalog#60412, BPS Bioscience) and HEK293 control cells (catalog# CRL-1573, ATCC) – both in logarithmic growth phase – were plated in a 24 well plate (2 × 10^5 cells per well) and cultured overnight. After 24 hr, each well was added 2 μCi of [ 11C]27, and incubated at 37 °C for 30 min or 60 min. The radioactive medium was aspirated and collected in a tube. The residual cells were washed twice with PBS, and then collected in the same tube. The cells were lysed with 1 N NaOH (200 μL) and washed twice with PBS, all the resulting solutions were collected in one tube.
The radioactivity in the collected supernatant and cell lysis buffer (600 μL/tube) was measured using a Cobra Model 5002/5003 gamma counter, respectively.
Blocking study: HEK293-PDE7B cells in logarithmic growth phase were plated in 24 well plate (2 × 10^5 cells per well) and cultured overnight. After 24 h, each well was added 2 μCi of [11C]27 with or without unlabeled reference compound 27 or BRL50481, respectively. The resulting culture medium contained 2 μCi of [ 11C]27, 1 µM of unlabeled compound 27 or BRL50481, and 5% DMSO. Cells were incubated at 37 °C for 60 min and samples were collected as described for the control study. The cell uptake was calculated according to the following eq.: cell uptake% = A lysis buffer/(A lysis buffer+Asupernate) (n = 4)

PDE7B = conditions: Figure 1, literature compounds; cited from earlier work
GSK3 = conditions: Figure 1, literature compounds; cited from earlier work
[3] = Lipophilicity by shake-flask method; format: physicochemical; conditions: pH 7.4, n-octanol/PBS, n = 3
Protocol: The general procedure for lipophilicity measurement was previously described, 4 with minor modification in this work. Briefly, the measurement of LogD value was carried out by mixing [11C]27 (radiochemical purity > 99%) with n-octanol (3.0 g) and PBS (0.1 M, 3.0 g) in a test tube. Both n-octanol and PBS were pre-saturated with each other prior to use. The tube was first vortexed for 5 min, followed by centrifugation (~3500-4000 rpm) for an additional 5 min. PBS and n-octanol were aliquoted, weighed and the radioactivity in each component was measured using a Cobra Model 5002/5003 gamma counter. The LogD was determined by Log [ratio of radioactivity in n-octanol and aqueous layer, respectively] (n = […]
For the evaluation of plasma protein binding,5 55.5 MBq radiotracer was added to 150 μL of plasma, which was pre-incubated under 37 °C for 5 min (n = 3). The samples were incubated at 37 °C for 10 min. To each 150 μL of radiotracer-plasma solution was added 300 μL of ice-cold PBS and all samples were briefly vortexed. […] The radioactivity (in Becquerel) was measured in the protein fraction (Aprotein), filtrate, and filter unit using a gamma counter (Wizard, PerkinElmer), Atotal was calculated as the sum of radioactivity, and the free fraction f u was calculated according to the following eq.: f u = 1-

[4] = In vitro stability of the formulated tracer (PBS with 10% ethanol; serum); format: in vitro ADME; conditions: 30, 60, 90 min; PBS containing 10% ethanol and serum of rodents, NHPs, humans
PDE7 [5] = experiment: microPET imaging in mice; format: in vivo, C57BL/6 mice; conditions: p.i.
Protocol: C57BL/6 mice (female; 8 weeks, 20–25 g) and Sprague-Dawley rats (male;
Rodent PET scans were carried out using a Genisys 4 PET (Sofie Biosciences, Culver, CA,
manufacturer’s acquisition software. Volumes of interest, including whole brain, cortex,

PDE7 [6] = experiment: PET imaging in rats (baseline and self-blocking); format: in vivo, Sprague-Dawley rats; conditions: rats
Protocol: page 10: All animal experiments were approved by the Institutional Animal Care and Use Committee of Massachusetts General Hospital or the National Institute of Radiological Sciences (Japan). C57BL/6 mice (female; 8 weeks, 20-25 g) and Sprague-Dawley rats (male; 8-9 weeks; 264-310 g) were kept on a 12 h light/12 h dark cycle and were allowed food and water ad libitum. Rodent PET scans were carried out using a […] (Sofie Biosciences, Culver, CA, USA) or a Siemens Inveon PET/CT system. Animals were kept under anesthesia using 1-2% (v/v) isoflurane in oxygen during the scan. The radiotracer (1.85 MBq for mice; 42-53 MBq for rats) was injected into the tail vein via a preinstalled catheter. A dynamic scan in 3D list mode was acquired for 60 min. The PET dynamic images were reconstructed using the manufacturer's acquisition software. Volumes of interest, including whole brain, cortex, striatum, hippocampus, thalamus and cerebellum were placed using AMIDE / PMOD software. The radioactivity was decay-corrected and expressed as standardized uptake value (SUV = radioactivity per mL tissue / injected radioactivity × bodyweight). S8

PDE7 [7] = experiment: PET imaging in nonhuman primates (baseline and self-blocking); format: in vivo, Cynomolgus monkeys; conditions: monkeys
[8] = Whole-body ex vivo biodistribution; format: in vivo; conditions: CD-1 mice
Protocol: PET imaging in nonhuman primates
Cynomolgus monkeys used for PET/CT scan were deprived of food for 12h but allowed to drink water at any time. Animals (Male, bodyweight 5.0-5.2 kg) were anesthetized with ketamine, placed into the scanner (GE Discovery Elite 690, USA), and maintained with 2% isoflurane and 98% oxygen. A solution of [11C]27 (6.24–9.84 mCi) was injected into the monkey via a venous catheter, followed by a dynamic PET scan. For the blocking study, the blocking reagent reference compound 27 (0.4 or 1.0 mg/kg, iv) was used, followed by the injection of [11C]27. Time-activity curves of each brain region were extracted from the corresponding VOIs and brain uptake was decay-corrected and expressed as SUV. biodistribution studies in miceWhole-body ex vivo
A solution of [11C]27 (1.85 MBq/100 µL) was injected into CD-1 mice via the tail vein.
Animals were sacrificed at 5, 15, 30, and 60 min post radiotracer injection (n= 4 for each time point). […] The radioactivity in these tissues was measured using a Cobra Model 5002/5003 gamma counter, and all radioactivity measurements were decay corrected based on the half-life of carbon-11. The results are expressed as the percentage of injected dose per gram of wet tissue (%ID/g).

[9] = Radiometabolite analysis in brain and plasma; format: in vivo, SD rats; conditions: n = 2; for parent fraction in plasma: rat plasma
Protocol: After intravenous injection of [11C]27 through the tail vein, SD rats were sacrificed at 5 min and 30 min post injection. Blood samples were collected and centrifuged at 14,000 rpm for 3 min at 4 °C to separate the plasma. The supernatant was collected and added to an ice-cooled test tube containing 100 μL of CH 3CN. After vortex for 10 s, the mixture was centrifuged at 14000 rpm for 3 min at 4 °C for deproteinization. The supernatant was collected, and the process was repeated until no precipitations were observed when CH3CN was added. The rat brain was immediately dissected, homogenized with 400 μL of ice-cooled CH3CN, and then centrifuged at 14,000 rpm for 5 min at 4 °C. The supernatant was collected in a test tube containing 100 μL of ice-cooled CH 3CN, and the process (vortex and centrifuge) was repeated until no precipitations were observed when CH3CN was added. An aliquot of the supernatant (100 µL), obtained from the brain homogenate, was injected into and analyzed by a radio-HPLC system. The percentage of [11C]27 to total radioactivity (corrected for decay) on the HPLC charts was calculated as (peak area for [11C]27/total peak area) × 100. The same procedure was used for metabolite analysis in plasma.
Statistical analysis was performed by Student’s two-tailed t-test, and asterisks were used to indicate statistical significance: * p < 0.05, ** p ≤ 0.01, *** p ≤ 0.001 and ****p < 0.0001.

PDE7 [10] = conditions: cited from earlier work

Compound: O=C1NS(=O)(=O)N(Cc2ccc(Cl)c(Cl)c2)c2ccccc21 [Compound 1]
- IC50 (PDE7 [1]): 8 µM
- IC50 (PDE4): 19 µM

Compound: COc1ccc(C(=O)CN2c3c(sc4ccccc34)C(=O)NS2(=O)=O)cc1 [Compound 2]
- IC50 (PDE4): 30 µM

Compound: Nc1nc2c(nc(Br)n2C2CCCc3cccc(Br)c32)c(=O)[nH]1 (centres unmarked) [Compound 3]
- IC50 (PDE7 [1]): 1.21 µM

Compound: CCOC(=O)c1sc(Nc2nc(NCc3ccc(S(N)(=O)=O)cc3)c3c(ncn3CC)n2)nc1C [Compound 4]
- IC50 (PDE7 [1]): 0.011 µM

Compound: CCCCOc1nc2c(c(=O)n(C)c(=O)n2C)n1CCCC(=O)Nc1cc(C(C)(C)C)ccc1O [Compound 5]
- IC50 (PDE7A): 5.07 µM
- IC50 (PDE4B): 5.43 µM

Compound: CCn1c(NC(C)C)nc2c(C3CCN(C(C)=O)C3)csc2c1=O (centres unmarked) [Compound 6]
- IC50 (PDE7A): 0.015 µM
- IC50 (PDE4B): 1.9 µM

Compound: CCOC(=O)c1sc(Nc2nc(N3CCNCC3)c3c(n2)N(Cc2cc(OC)c(OC)c(OC)c2)CC3)nc1C [Compound 7]
- IC50 (PDE7 [1]): 0.006 µM

Compound: O=[N+]([O-])c1ccc(Sc2ccncc2)c(Cl)c1 [Compound 10]
- IC50 (PDE7 [1]): 0.18 µM

Compound: COc1cc(COC(=O)c2ccc(-c3ccccc3)o2)cc(OC)c1OC [Compound 11]
- IC50 (PDE7A1): 5.1 µM

Compound: Cn1nc(-c2ccc(C(N)=O)cc2)s/c1=N\C1CCCCC1 [Compound 12]
- IC50 (PDE7A1): 0.061 µM
- IC50 (PDE4D3): 15.3 µM

Compound: O=C(Nc1ccc(N2CCOCC2)cc1)c1cn(Cc2c(F)cccc2Cl)c2ccc(=O)[nH]c2c1=O [Compound 13]
- IC50 (PDE7A1): 0.013 µM
- IC50 (PDE4A4): > 1 µM

Compound: O=c1[nH]c(=S)[nH]c2cc(F)c(F)cc12 [Compound 15]
- IC50 (PDE7A): 0.074 µM

Compound: Cn1c(-c2ccoc2)nc(=O)c2ccccc21 [Compound 16]
- IC50 (PDE7A): 0.096 µM

Compound: Cc1ccc([N+](=O)[O-])cc1S(=O)(=O)N(C)C [Compound 17]
- blockade of [11C]27 cell uptake ([2]; blocker 1 μM, 60 min incubation, PDE7B overexpressing HEK293 cells, n = 4): ~55%
- IC50 (PDE7A): 0.15 µM
- IC50 (PDE7B): 12.1 µM

Compound: O=C1Nc2ccc(Cl)c(Cl)c2C2(CCCCC2)N1 [Compound 18]
- IC50 (PDE7 [1]): 0.014 µM

Compound: O=C1Nc2c(Br)cccc2C2(CCCCC2)N1 [Compound 19]
- IC50 (PDE7 [1]): 0.07 µM

Compound: COc1ccc(-c2cc3c(n2-c2ccc(S(=O)(=O)Nc4nc(C)cc(C)n4)cc2)CCC(N2CCN(C)CC2)C3)cc1C (centres unmarked) [Compound 20]
- IC50 (PDE4): 0.63 µM
- IC50 (PDE7A): 0.014 µM

Compound: COc1ccc(C2=NN(C3CCN(C(=O)N4CCOCC4)CC3)C(=O)C3CC=CCC23)cc1Cl (centres unmarked) [Compound 21]
- IC50 (PDE7 [1]): 0.023 µM
- IC50 (PDE4): 0.0023 µM

Compound: COc1ccccc1N1CCN(CCCC(=O)Nc2ccc(C(C)(C)C)cc2)CC1 [Compound 22]
- IC50 (PDE7A): 27 µM
- IC50 (PDE4B): 96 µM

Compound: c1ccc(-c2nc(=NCc3cccnc3)sn2-c2ccccc2)cc1 [Compound 23]
- IC50 (PDE7 [1]): 0.38 µM
- IC50 (GSK3): 1.28 µM

Compound: [11CH3]Oc1ccc(Cl)c2c1C1(CCCCC1)NC(=O)N2 [[^11C]27]
- logD [3]: 3.67 ± 0.04
- in vitro stability [4]: no obvious degradation or radiolysis was found
- radioactivity uptake in HEK293-PDE7B cells versus control cells ([2]; 30 and 60 min incubation): 6–7 fold
- time to peak SUV in brain (PDE7 [5]): ≤ 2 min
- plateau of brain uptake (PDE7 [6]; at 20 min postinjection): 0.5 SUV
- highest SUV values in brain (PDE7 [6]; at approximately 5 min postinjection): > 2 SUV
- peak SUV (SUVmax) in brain (PDE7 [7]; baseline): 3 SUV
- time of peak SUV in brain (PDE7 [7]; p.i.): about 3 min
- radioactivity accumulation in heart ([8]; 5 min p.i.): up to 24 % ID/g
- cardiac uptake ([8]; within 60 min): less than 2%
- intact parent fraction in brain ([9]; rat brain, 5 min): More than 98%
- parent fraction in brain homogenates ([9]; rat brain, 30 min postinjection): more than 75%
- parent fraction in plasma ([9]; 5 min p.i.): 70% ± 18%
- parent fraction in plasma ([9]; 30 min p.i.): 19% ± 0.6%

Compound: O=C1Nc2c(Cl)ccc(OCC[18F])c2C2(CCCCC2)N1 [[^18F]-MICA-003]
- affinity to PDE7 (PDE7 [10]; ref Thomae et al.): 17 nM

Compound: O=C1Nc2c(Cl)ccc(Oc3c(F)cccc3C(=O)N3CC([18F])C3)c2C2(CCCCC2)N1 [[^18F]-P7-2302]
- affinity to PDE7 (PDE7 [10]; earlier 18F-isotopologue of the same spiro quinazoline structure): 0.18 nM
